Results: paper PMC4450297, “Screening Active Compounds from Garcinia Species Native to China Reveals Novel Compounds Targeting the STAT/JAK Signaling Pathway” (BioMed Research International, 2015)

Legend:
[1] = system: STAT3, ERK, AKT phosphorylation in NCI-H1650 cells; assay: Western blot analysis in NCI-H1650 cells; assay type: cell-based, human; conditions: 8 h
Protocol: (§1) Floating and adherent cells were harvested and treated with ice-cold RIPA lysis buffer (50 mM Tris-HCl, pH 7.5, 0.5% cholic acid, 2 mM EDTA, 10% glycerol, 150 mM NaCl, 0.1% SDS, and 1% Triton X-100) containing complete Mini Protease Inhibitor Cocktail (Roche Applied Science, Indianapolis, IN). Proteins were separated by sodium dodecyl sulfate polyacrylamide gel electrophoresis and transferred to nitrocellulose membranes. Membranes were blocked with 5% BSA in washing buffer (100 mM NaCl, 10 mM Tris-HCl, pH 7.5, and 0.1% Tween-20) for 1 hr at room temperature and incubated with the respective primary antibodies in 5% BSA in washing buffer overnight at 4°C with shaking. The membranes were probed with the following antibodies: p44/42 (Cat#9107, CST), phospho-p44/42 (Cat#4370, CST), AKT (Cat#9272, CST), phospho-AKT (ser473) (Cat#9271, CST), STAT3 (Cat#9139, CST), and phospho-STAT3 (Tyr705) (Cat#9131, CST). Membranes were then washed and incubated with anti-mouse or anti-rabbit fluorescent secondary antibodies (LICOR, US) diluted in washing buffer for 1 h at room temperature with shaking. Protein bands were detected using an Odyssey Imaging system (LICOR, US).

[2] = system: phosphorylation of STAT3 upon IL-6 stimulation in HepG2 cells; assay: Western blot, IL-6-stimulated STAT3 activation; assay type: cell-based, human; conditions: pretreated 2 h, IL-6 10 ng/mL 15 min
Protocol: as §1

SMILES: CC(C)=CCC[C@@]1(C)C=Cc2c(O)c3c(c(C/C=C(\C)CO)c2O1)O[C@]12C(=C[C@@H]4C[C@H]1C(C)(C)O[C@@]2(C/C=C(/C)C(=O)O)C4=O)C3=O [GB40, 35-hydroxyepigambogic acid]
- Phosphorylation of ERK and AKT [1]: inhibited
- STAT3 expression and its phosphorylation (Tyr705) [1]: inhibited STAT3 expression and its phosphorylation in a dose-dependent manner
- phosphorylation of STAT3 upon IL-6 stimulation [2]: efficiently suppressed

SMILES: CC(C)=CCC[C@@]1(C)C=Cc2c(O)c3c(c(CCC(C)(C)O)c2O1)O[C@]12C(=C[C@@H]4C[C@H]1C(C)(C)O[C@@]2(C/C=C(/C)C(=O)O)C4=O)C3=O [GB39, 33-hydroxyepigambogic acid]
- Phosphorylation of ERK and AKT [1]: inhibited
- STAT3 expression and its phosphorylation (Tyr705) [1]: inhibited STAT3 expression and its phosphorylation in a dose-dependent manner
- phosphorylation of STAT3 upon IL-6 stimulation [2]: efficiently suppressed
